pKi: −log10 of the molar value. Values joined by “and” are separate entries in the source; they are usually repeats but may differ in a detail not shown here. Equal values may be shown once.
Biological target: T1, neutrophil elastase (NE) (Homo sapiens, UniProt P08246)
T1 construct: purchased Calbiochem
T1 sequence (P08246 30-267): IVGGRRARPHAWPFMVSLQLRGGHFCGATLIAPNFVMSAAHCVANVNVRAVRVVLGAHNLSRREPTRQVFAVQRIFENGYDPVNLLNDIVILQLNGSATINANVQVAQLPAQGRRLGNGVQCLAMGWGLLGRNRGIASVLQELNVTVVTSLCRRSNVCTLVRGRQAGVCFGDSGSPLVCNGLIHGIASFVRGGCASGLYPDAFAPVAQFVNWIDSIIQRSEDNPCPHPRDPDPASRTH
Test: Irreversible inhibition kinetics of neutrophil elastase (fluorogenic substrate progress curves)
Type: biochemical
Description: A range of inhibitor concentrations were prepared from a 10 mM stock solution of the test compounds (NAP533, NAP559, NAP800, NAP830, NAP849, and NAP962) in N, N-dimethylformamide (DMF). Recombinant protease activities were assayed using the cognate fluorogenic substrates as follows: trypsin (Z-Gly-Gly-Arg-NHMec), thrombin (Boc-Val-Pro-Arg-NHMec), plasmin (Boc-Val-Leu-Lys-NHMec), human neutrophil elastase (MeO-Succinyl-Ala-Ala-Pro-Val-NHMec), and chymotrypsin (Succinyl-Ala-Ala-Pro-Phe-NHMec). Each substrate was used at a final concentration of 50 μM, in the appropriate buffer for each protease. All inhibition assays were performed in microtiter plates maintained at 37°C in a final volume of 100 μL. The reaction was initiated by the addition of each protease (approx. 0.01 μg/well) and the rate of substrate hydrolysis was recorded continuously at 37°C, over a 60 min period, by measuring the rate of increase in fluorescence (at λex 360 nm, λem 480 nm) using a FLUOstar Optima microplate reader (BMG Labtech).
The resultant inhibition progress curves obtained for each inhibitor were analyzed by the kinetic models developed by [Tian and Tsou (1982)] and [Walker and Elmore (1984)], for irreversible inhibitors, with curve fitting being achieved using GraFit (Erithacus Software), as described previously ([Ferguson et al., 2016]).
FIGURE 4 Progress curves for (A), chymotrypsin-catalysed hydrolysis of Succinyl-Ala-Ala-Pro-Phe-NHMec, in the presence of varying concentrations of NAP849. (B), NE-catalysed hydrolysis of MeO-succinyl-Ala-Ala-Pro-Val-NHMec, in the presence of varying concentrations of NAP800. (C) Trypsin-catalysed of Z-Gly-Gly-Arg-NHMec, in the presence of NAP830. (D) Plasmin-catalysed hydrolysis of Boc-Val-Leu-Lys-NHMec, in the presence of varying concentrations of NAP962. Assays were carried out in PBS, pH 7.4, at 37°C, in the presence of a range of inhibitor concentrations (0.25–50 μM) and a fixed concentration (50 μM) of the appropriate substrate for each protease.
The “product progress” curves for substrate hydrolysis in the presence of an inhibitor (Figure 4) are indicative of the action of irreversible inhibitors operating through the kinetic scheme illustrated in Figure 6. In this scheme, the formation of the reversible enzyme–inhibitor complex (EI) is zcharacterized by the inhibitor constant K i. This is converted into the covalent/irreversible complex (E-I) characterized by a first-order rate constant k 3. The overall second-order rate constant for the inactivation of E by I is given by the ratio k 3/K i ([Walker and Elmore, 1984]; [Tsou, 1988]). […]
Protease inactivation by each of the compounds under study was evaluated using a fluorogenic enzyme assays. […]

pKi (MeO-Succinyl-Ala-Ala-Pro-Val-NHMec 50 μM, PBS pH 7.4, 37°C, mean ± SD (n=2)): 5.22
k 3 (first-order rate constant, PBS pH 7.4, 37°C, mean ± SD (n=2)): 0.38(± 0.06) min^−1
second-order rate constant (k 3/K i) relative to the analogous valine diphenyl phosphonate QUBEL1 (fold greater than QUBEL1): approximately five-fold
Structure (SMILES): CC(C)N(CC(=O)NCC(=O)NCC(=O)NCCCOCCOCCOCCCNC(=O)CCCCC1SCC2NC(=O)NC21)C(=O)ON1C(=O)CCC1=O (stereo not drawn) [NAP800, Succinimidoyl-CO-NVal-Gly-Gly-PEG-Biotin]
k 3 / K i (second-order rate constant of inactivation, PBS pH 7.4, 37°C, mean ± SD (n=2)): 6.41 × 10^4 M^−1 min^−1 and 6.4 (± 0.57) × 10^4 M^−1 min^−1
